According to US4393178A, “Fast crystallizing polyester compositions” (priority 1979, dated 1983):
Where “and” joins values, the source holds several entries; their conditions need not be identical. Equal entries are not always repeated. Structures can show the parent of a compound that is named as a salt. Where two headings read alike, the source gives them in different places.

How the values were obtained:
[1] = Half-crystallisation time (t1/2), isothermal DSC; type: physicochemical
Procedure: A DSC 2 Perkin Elmer scanning calorimeter was used.
10 mg of the sample of polymer material are placed in a capsule and introduced into the apparatus, wherein the sample is quickly heated to a temperature of 290° C. at which it is maintained during 1 minute.
The molten polymer material is then very quickly cooled by means of liquid air (at a rate of 320° C. per minute) until the crystallisation temperature is reached.
The crystallisation isotherm is registered on a temperature-time graph and the peak appearing on the registered isotherm is taken as the half-crystallisation time (t1/2).

[2] = ΔT = Tc(cooling) - Tn(heating), DSC; type: physicochemical; details: 1% salt in PET, 2-roll mill 270 °C 5 min; 10 °C/minute
Procedure: An alternative method for assessing the effectiveness of nucleation of an additive is to compare the difference between the value of the crystallisation peak on cooling (Tc) with that on heating (Tn) for a composition containing an ionisable salt. The value obtained from this comparison, Tc(cooling) -Tn(heating) is termed ΔT. […] Samples of polyester together with 1% of the salt under test were mixed in a 2-roll mill at 270° C. for 5 minutes. The sample produced was pressed into 2 mm thick sheets at 270° C. for 3 minutes and then cooled to room temperature. 10 mg of the sample was placed in a capsule and rapidly heated to 290° C. After maintaining this temperature for 1 minute the capsule was quenched in water. The crystallisation peak temperatures on heating (Tn) and cooling (Tc) were determined using heating and cooling rates of 10° C./minute on a Perkin Elmer DSC 2 machine.

[3] = Degradation constant K (melt degradation performance); type: physicochemical; set-up: unit not given here; details: 1% salt in PET, 2-roll mill 270 °C 5 min; molten state 290 °C
Procedure: The melt degradation performance is a measure of the extent of degradation under molten conditions. A convenient method of quantifying the performance is by measuring the "K value". A method for determining this value in the molten state using an Instron Capillary rheometer is given in a paper by J. Devaux et al in Makromol.
This method is carried out on samples prepared by reacting the salt with the polyester on a 2 roll-mill at a temperature above the melting point of the polyester for 5 minutes and then pressing the product obtained into a 2 mm thick sheet using the same temperature for 3 minutes before cooling to room temperature. The method is described for polyethylene terephthalate but can be readily adapted for other polyesters.
For polyethylene terephthalate the K value in the presence of salt should be less than 60.

[4] = cited from earlier work
[5] = Solubility parameter δ of the acid; details: product for the acid
[6] = Crystallisation peak temperature on heating (Tn), DSC; type: physicochemical; details: for Tn (16° C./min): 1% salt deposited from solution on PET; for Tn(composition)-Tn(polyester): PET I.V. 0.73 + 1% salt, 2-roll mill 300 °C 2 min, 10 °C/minute
Procedure: In one such DSC technique the crystallisation peak temperature difference, Tn(composition)--Tn(polyester) is determined by measuring the crystallisation peak temperatures on heating for the composition in comparison with the polyester of the composition not containing the ionisable salt. The detailed procedure is as follows. Compositions were prepared from the polyester and the additive by mixing on a 2-roll mill at 300° C. for 2 minutes. The sample was taken from the mill and pressed into a film in a compression moulding machine. 10 mg samples of the composition were placed in a capsule, rapidly heated to 290° C. and maintained at that temperature for 1 minute. The capsule was then dropped into water to quench the polymer and prevent crystallisation. The sample was then placed in a Perkin Elmer DSC 2 machine and heated at a rate of 10° C./minute until reaching a temperature of 290° C. The crystallisation peak temperature observed on this heating cycle is recorded and compared with the value for the polyester not containing the additive.
Samples of polyethylene terephthalate (I.V. =0.73) containing 1% of the salts listed in Table 2 were prepared by compounding at 300° C. on a 2-roll mill for 2 minutes. The samples were evaluated to determine Tn(composition-Tn(polyester), the total number of end groups, the number of carboxylate groups and the number of hydroxyl and carboxyl groups.
The salts listed in Table 3 were deposited from solution on the surface of polyethylene terephthalate chip to give a concentration of 1% by weight of salt. The product was dried under vcuum at 96° C. for 3 hours. The compositions were pressed into film using a temperature of 280° C. for 1 minute. The DSC measurements were made after quenching from the melt to prevent crystallisation and using a heating rate of 16° C./minute.
1% by weight of the sodium salt of saccharin was deposited on the surface of granules of a polyethylene terephthalate homopolymer of I.V. =0.73 by evaporating an aqueous solution of the salt from the granules by drying at 96° C. under vacuum for 3 hours. The granules obtained were compression moulded into film by pressing at 280° C. for 60 second. The film was used for measurements of Tn at a heating rate of 16° C./minute.
The effect of the salts listed in Table 4 was determined by taking granules of a polymer of poly(ethylene terephthalate) homopolymer having an intrinsic viscosity of 0.73 and evaporating a solution of the salt in methanol or water from the surface of the granules by drying at 96° C. under vacuum for 3 hours. The proportions of polymer and solution used were such as to give a concentration of 1% of salt by weight of the final dry composition. The granules obtained were compression-moulded into film at 280° C. for various periods of time. The film was used for measurement of Tn as hereinbefore described.
Two samples of polyethylene terephthalate chip (I.V. =0.73) were coated from solution with 1% of the sodium salt of o-hydroxybenzoic acid and the disodium salt of the same acid respectively. After drying for 3 hours in a vacuum oven at 95° C. films were prepared by pressing the products for 1 minute at 280° C.

[7] = Degradation constant K (melt degradation performance); type: physicochemical; set-up: unit not given here; details: 1% salt deposited from solution on PET (Examples 13-15)
[8] = End group determination; type: physicochemical
Procedure: The numbers of hydroxyl and carboxyl groups were also determined according to the procedure given in this paper.
[…] The samples were evaluated to determine Tn(composition-Tn(polyester), the total number of end groups, the number of carboxylate groups and the number of hydroxyl and carboxyl groups.

[9] = Crystallisation peak temperature on heating (Tn), DSC, block copolymer; type: physicochemical; details: 1% salt from solution on block copolymer; heating rate 16 °C/minute
Procedure: A block copolymer containing 5% by weight of polyethylene glycol units of molecular weight 1540 in chip form was blended with a solution of the sodium salt of o-chlorobenzoic acid to give a salt concentration of 1% by weight of the polyester. Samples were prepared for DSC analysis using the procedure of Example 15.
The polymer used in Example 16 and 1% of the disodium salt of o-hydroxy benzoic acid were compounded on a 2-roll mill at 270° C. for 2 minutes. […] (measured at a heating rate of 10° C./minute).

[10] = acid from which the salt is derived, in water
[11] = 110 °C, 1% salt in PET, 2-roll mill 270 °C 5 min, after melting 1 minute at 290 °C
[12] = 120 °C, 1% salt in PET, 2-roll mill 270 °C 5 min, after melting 1 minute at 290 °C
[13] = pressed 280 °C 1 minute, heating rate 16 °C/minute
[14] = 1% salt deposited from solution on PET chip, pressed 280 °C 1 minute
[15] = PET I.V. 0.73 + 1% salt, 2-roll mill 300 °C 2 min

| SMILES | δ × pKH.sbsb.2O [5] | t1/2 (sec) 110° C. [1, 11] [s] | t1/2 (sec) 120° C. [1, 12] [s] | ΔT [2] [°C] | K [3] | pKH.sbsb.2O [4, 10] | other results |
| --- | --- | --- | --- | --- | --- | --- | --- |
| O=C(O)c1cccc(Cl)c1 [meta-chlorobenzoic acid] | 47 |  |  | 107 | 31 | 3.8 | t1/2 (sec) 110° C. [1]: 63 s; t1/2 (sec) 120° C. [1]: 40 s |
| O=C(O)c1ccc(O)cc1O [2,4-dihydroxy benzoic acid] | 47 | 95 | 45 | 99 | 35 | 3.2 |  |
| O=C(O)c1cc([N+](=O)[O-])cc([N+](=O)[O-])c1 [3,5-dinitrobenzoic acid] | 38 | 85 | 45 | 102 | 44 | 2.8 |  |
| O=C(O)c1ccc(Oc2ccccc2)cc1 [para-oxyphenylbenzoic acid] | 47 |  |  | 105 | 40 | 3.5 | t1/2 (sec) 110° C. [1]: 73 s; t1/2 (sec) 120° C. [1]: 38 s |
| O=C(O)c1cc(O)ccc1O [2,5-dihydroxy benzoic acid] |  |  |  | 103 | 22 | 3 | t1/2 (sec) 110° C. [1]: 85 s; t1/2 (sec) 120° C. [1]: 48 s |
| O=C(O)c1ccccc1O [ortho-hydroxy benzoic acid] |  |  |  | 105 | 26 |  | t1/2 (sec) 110° C. [1]: 80 s; t1/2 (sec) 120° C. [1]: 40 s; Tn (16° C./min) ([6]; pressed 280 °C 1 minute, heating rate 16 °C/minute, listed as sodium salt of o-hydroxybenzoic acid): 114 °C; K ([7]; listed as sodium salt of o-hydroxybenzoic acid): 26 |
| O=S(=O)(O)c1ccccc1 [Sodium benzene sulphonate, reference compound] |  |  |  |  |  |  | Tn [6]: 146 °C and 141.5 °C; Dissociation Constant ([4]; water): 2 × 10^-1 |
| O=C1NS(=O)(=O)c2ccccc21 [sodium salt of saccharin] |  |  |  |  |  |  | Tn (16° C./min) [6, 13]: 112 °C; K [7]: 9 |
| O=C(O)c1cccs1 [Sodium salt of 2-thiophencarboxylic acid] |  |  |  |  |  |  | Tn(comp.)-Tn(PET) (16° C./min) ([6]; 1% salt deposited from solution on PET chip, pressed 280 °C 1 minute, heating rate 16 °C/minute): 29 °C; Tn (16° C./min) [6, 13]: 112 °C; End Groups --COOH [8, 14]: 24 moles × 10^-6 g^-1; End Groups --OH [8, 14]: 59 moles × 10^-6 g^-1; End Groups Total from solution I.V. [8, 14]: 145 moles × 10^-6 g^-1; K [7]: 15 |
| O=C(O)c1ccco1 [Sodium salt of 2-furoic acid] |  |  |  |  |  |  | Tn (16° C./min) [6, 13]: 127 °C; End Groups --COOH [8, 14]: 29 moles × 10^-6 g^-1; End Groups --OH [8, 14]: 62 moles × 10^-6 g^-1; End Groups Total from solution I.V. [8, 14]: 121 moles × 10^-6 g^-1; K [7]: 65 |
| O=C(O)c1cccc([N+](=O)[O-])c1 [meta-nitrobenzoic acid] | 30 |  |  | 106 | 20 |  | t1/2 (sec) 110° C. [1]: 65 s; t1/2 (sec) 120° C. [1]: 45 s; pKH.sbsb.2O ([4]; water): 2.2 |

Now from value to molecule, other results behind:

| δ × pKH.sbsb.2O [5] | t1/2 (sec) 110° C. [1, 11] [s] | t1/2 (sec) 120° C. [1, 12] [s] | SMILES | ΔT [2] [°C] | K [3] | pKH.sbsb.2O [4, 10] | other results |
| --- | --- | --- | --- | --- | --- | --- | --- |
| 26 | 110 | 50 | O=C(O)c1c(O)cc(O)cc1O [2,4,6-dihydroxy benzoic acid] | 97 | 37 | 1.7 |  |
| 50 | 70 | 38 | O=C(O)c1ccc(F)cc1 [para fluorobenzoic acid] | 104 | 60 | 4.1 |  |
| 54 | 165 | 55 | O=C(O)c1cccc(O)c1 [metra-hydroxy benzoic acid] | 91 | 86 | 3.9 |  |
| 34 | 60 | 35 | O=C(O)c1ccc(Cl)cc1Cl [2,4-dichlorobenzoic acid] | 109 | 65 | 2.8 | Tn(composition)-Tn(polyester) [6]: 23 °C; % of carboxylate end group [8, 15]: 16.7%; End Groups --COOH [8, 15]: 67 moles × 10^-6 g^-1; End Groups --OH [8, 15]: 55 moles × 10^-6 g^-1; End Groups Carboxylate [8, 15]: 32 moles × 10^-6 g^-1; End Groups Total from solution I.V. [8, 15]: 192 moles × 10^-6 g^-1 |
| 29 | 65 | 40 | O=C(O)c1cc([N+](=O)[O-])ccc1Cl [2-chloro-5-nitrobenzoic acid] | 108 | 52 |  | pKH.sbsb.2O ([4]; water): 2.2 |
| 37 | 65 | 36 | O=C(O)c1ccccc1Cl [ortho-chlorobenzoic acid] | 108 | 32 |  | Tn [9]: 102 °C; Tn(composition)-Tn(polyester) [6]: 26 °C; pKH.sbsb.2O ([4]; water): 3; % of carboxylate end group [8, 15]: 22%; End Groups --COOH [8, 15]: 45 moles × 10^-6 g^-1; End Groups --OH [8, 15]: 55 moles × 10^-6 g^-1; End Groups Carboxylate [8, 15]: 37 moles × 10^-6 g^-1; End Groups Total from solution I.V. [8, 15]: 167 moles × 10^-6 g^-1 |
| 46 | 75 | 54 | O=C(O)c1ccc([N+](=O)[O-])cc1 [para-nitrobenzoic acid] | 102 | 79 |  | pKH.sbsb.2O ([4]; water): 3.4 |
